According to US10273267B2, “Beta-hairpin peptidomimetics as selective elastase inhibitors” (POLYPHOR AG, priority 2013, dated 2019):
*1 amine or outer side, *2 acyl side, *3 side chain or, on linkers, in order; H or OH if unused. Where a SMILES comes first, the peptide text is derived from it. [ ]: non-standard residue; d: D form. Oic = O=C(O)[C@@H]1C[C@@H]2CCCC[C@@H]2N1; X1 = NCCCC[C@@H](CCC(=O)[*:2])N[*:1]; Gly(octyl) = CCCCCCCC[C@H](N)C(=O)O; hTyr = N[C@@H](CCc1ccc(O)cc1)C(=O)O; β3hK = NCCCC[C@H](N)CC(=O)O; β3hP = O=C(O)C[C@@H]1CCCN1; Pip = O=C(O)[C@@H]1CCCCN1; Aze = O=C(O)[C@@H]1CCN1

Legend:
Assay type in all cases: biochemical
human proteinase 3 = biological target: T1, human proteinase 3 (Homo sapiens, UniProt P24158); test: Inhibition of human proteinase 3 (substrate Boc-Ala-Ala-Nva-SBzl); details: for hNE/hPr3 selectivity: ratio of hPr3 IC50 to hNE IC50; for IC50: substrate Boc-Ala-Ala-Nva-SBzl 1 mM, enzyme 10 nM, 37° C., pH7.4, read-out: Human proteinase 3 (hPr3) IC50
T1 construct: purchased Elastin Products Company, USA
T1 sequence (P24158 28-248): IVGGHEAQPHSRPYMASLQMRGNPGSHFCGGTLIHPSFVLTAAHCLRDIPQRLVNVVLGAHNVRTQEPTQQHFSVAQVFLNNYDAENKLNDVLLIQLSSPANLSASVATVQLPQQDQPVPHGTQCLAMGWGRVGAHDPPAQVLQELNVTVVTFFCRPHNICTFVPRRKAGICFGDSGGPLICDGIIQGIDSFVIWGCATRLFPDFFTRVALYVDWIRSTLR
Outline: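 Enzyme at 10 nM incubated at 37°C with 1 mM thiobenzyl ester substrate, 250 μM 4,4′-dithiodipyridine and serial peptide dilutions (0.5% DMSO) in Tris pH 7.4, 150 mM NaCl, 0.01% Tween20. Absorbance at 340 nm followed over 30 min; IC50 from 4-parameter Hill fit.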

[1] = biological target: T2, human neutrophil elastase (Homo sapiens, UniProt P08246); test: Inhibition of human neutrophil elastase (hydrolysis of MeOSuc-AAPV-pNA); details: substrate MeOSuc-AAPV-pNA 0.3 mM, enzyme 10 nM, 37° C., pH 8; read-out: Human neutrophil elastase (hNE) IC50
T2 construct: purchased Serva Electrophoresis, Germany
T2 sequence (P08246 30-267): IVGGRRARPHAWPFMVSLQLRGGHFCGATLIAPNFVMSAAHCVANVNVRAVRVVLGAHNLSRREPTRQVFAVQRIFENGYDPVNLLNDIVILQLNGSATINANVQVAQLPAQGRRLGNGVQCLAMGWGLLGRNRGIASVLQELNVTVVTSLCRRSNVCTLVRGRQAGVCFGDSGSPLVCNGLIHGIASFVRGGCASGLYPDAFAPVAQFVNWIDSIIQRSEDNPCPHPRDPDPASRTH
Outline: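 MeOSuc-AAPV-pNA (0.3 mM) hydrolysis by 10 nM enzyme at 37° C with serially diluted peptides (1% DMSO) in 50 mM Tris pH 8, 300 mM NaCl, 0.01% Tween20. pNA release read at 405 nm over 30 minutes; IC50 from 4-parameter Hill fit.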

[2] = biological target: T3, porcine pancreatic elastase (Sus scrofa, UniProt P00772); test: Inhibition of porcine pancreatic elastase (hydrolysis of MeOSuc-AAA-pNA); details: for hNE/PPE selectivity: ratio of PPE IC50 to hNE IC50; for IC50: substrate MeOSuc-AAA-pNA 1 mM, enzyme 15 nM, 37° C., pH8, read-out: Porcine pancreatic elastase (PPE) IC50
T3 construct: purchased Sigma, USA
T3 sequence (P00772 27-266): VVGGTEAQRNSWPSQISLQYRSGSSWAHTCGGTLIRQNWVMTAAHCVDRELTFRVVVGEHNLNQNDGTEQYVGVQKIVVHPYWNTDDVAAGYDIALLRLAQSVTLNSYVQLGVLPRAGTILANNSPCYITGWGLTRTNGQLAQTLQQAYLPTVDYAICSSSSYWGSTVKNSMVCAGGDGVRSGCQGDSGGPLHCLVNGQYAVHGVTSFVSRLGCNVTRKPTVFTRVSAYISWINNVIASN
Outline: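 Elastase (15 nM) incubated at 37 °C with 1 mM MeOSuc-AAA-pNA and serially diluted peptides (0.5% DMSO) in 50 mM Tris pH 8, 100 mM NaCl, 0.01% Tween20. pNA release read at 405 nm over 30 min; IC50 from 4-parameter Hill fit.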

hNE/hPr3 selectivity (human proteinase 3) | IC50 (human proteinase 3) | IC50 [1] | hNE/PPE selectivity [2] | IC50 [2] | SMILES
371 | 15.4 µM | 0.0415 µM | 212 | 8.8 µM | CCCCCCCC[C@@H]1NC(=O)[C@@H]2CCCN2C(=O)[C@H]2CCCN2C(=O)[C@H]([C@@H](C)O)NC(=O)C[C@H](CCCCN)NC(=O)[C@H](CCC(N)=O)NC(=O)[C@@H]2CCCN2C(=O)[C@@H]2CCCN2C(=O)[C@H]([C@@H](C)CC)NC(=O)[C@H](CO)NC(=O)[C@H](C)NC(=O)[C@H]([C@@H](C)O)NC(=O)[C@H](CCC(=O)O)NC1=O [Example 37, Cyclo(-OctGly-Glu-Thr-Ala-Ser-Ile-Pro-Pro-Gln-[H-β^3-H Lys-OH]-Thr-^DPro-Pro-)] (cyclo([Gly(octyl)]ETASIPPQ[β3hK]T[dP]P))
535 | 9.2 µM | 0.0172 µM | 535 | 9.2 µM | CCCCCCCC[C@@H]1NC(=O)[C@@H]2CCCN2C(=O)[C@H]2CCCN2C(=O)[C@H]([C@@H](C)O)NC(=O)CC[C@H](CCCCN)NC(=O)[C@H](CCC(N)=O)NC(=O)[C@@H]2CCCN2C(=O)[C@@H]2CCCN2C(=O)[C@H]([C@@H](C)CC)NC(=O)[C@H](CO)NC(=O)[C@H](C)NC(=O)[C@H]([C@@H](C)O)NC(=O)[C@H](CCC(=O)O)NC1=O [Example 38, Cyclo(-OctGly-Glu-Thr-Ala-Ser-Ile-Pro-Pro-Gln-[H-γ^4-DiHLys-OH]-Thr-^DPro-Pro-)] (cyclo([Gly(octyl)]ETASIPPQ[X1]T[dP]P))
24655 | 71.5 µM | 0.0029 µM | 30310 | 87.9 µM | CCCCCCCC[C@@H]1NC(=O)C[C@@H]2CCCN2C(=O)[C@H]2CCCN2C(=O)[C@H]([C@@H](C)O)NC(=O)[C@H](CCCCN)NC(=O)[C@H](CCC(N)=O)NC(=O)[C@@H]2CCCN2C(=O)[C@@H]2CCCN2C(=O)[C@H]([C@@H](C)CC)NC(=O)[C@H](CO)NC(=O)[C@H](C)NC(=O)[C@H]([C@@H](C)O)NC(=O)[C@H](CCC(=O)O)NC1=O [Example 39] (cyclo([Gly(octyl)]ETASIPPQKT[dP][β3hP]))
>76923 | > 100 µM | 0.0013 µM | >76923 | > 100 µM | CCCCCCCC[C@@H]1NC(=O)[C@@H](CCC(=O)O)NC(=O)[C@H]2CCCN2C(=O)[C@H]([C@@H](C)O)NC(=O)[C@H](CCCCN)NC(=O)[C@H](CCC(N)=O)NC(=O)[C@@H]2CCCN2C(=O)[C@@H]2CCCN2C(=O)[C@H]([C@@H](C)CC)NC(=O)[C@H](CO)NC(=O)[C@H](C)NC(=O)[C@H]([C@@H](C)O)NC(=O)[C@H](CCC(=O)O)NC1=O [Example 40, Cyclo(-OctGly-Glu-Thr-Ala-Ser-Ile-Pro-Pro-Gln-Lys-Thr-^DPro-^DGlu-)] (cyclo([Gly(octyl)]ETASIPPQKT[dP][dE]))
>12658 | > 100 µM | 0.0079 µM | >12658 | > 100 µM | CC[C@H](C)[C@@H]1NC(=O)[C@H](CO)NC(=O)[C@H](C)NC(=O)[C@H]([C@@H](C)O)NC(=O)[C@H](C(C)C)NC(=O)[C@H](CCCNC(=N)N)NC(=O)[C@@H]2CCCN2C(=O)[C@H]2CCCN2C(=O)[C@H]([C@@H](C)O)NC(=O)[C@H](CCCCN)NC(=O)[C@H](CCC(N)=O)NC(=O)[C@@H]2C[C@@H]3CCCC[C@@H]3N2C(=O)[C@@H]2CCCN2C1=O [Example 41] (cyclo(RVTASIP[Oic]QKT[dP]P))
>20833 | > 100 µM | 0.0048 µM | >20833 | > 100 µM | CC[C@H](C)[C@@H]1NC(=O)[C@H](CO)NC(=O)[C@H](C)NC(=O)[C@H]([C@@H](C)O)NC(=O)[C@H](CCc2ccc(O)cc2)NC(=O)[C@H](CCCNC(=N)N)NC(=O)[C@@H]2CCCN2C(=O)[C@H]2CCCN2C(=O)[C@H]([C@@H](C)O)NC(=O)[C@H](CCCCN)NC(=O)[C@H](CCC(N)=O)NC(=O)[C@@H]2C[C@@H]3CCCC[C@@H]3N2C(=O)[C@@H]2CCCN2C1=O [Example 42] (cyclo(R[hTyr]TASIP[Oic]QKT[dP]P))
>237037 | > 100 µM | 0.0027 µM | >237037 | > 100 µM | CC[C@H](C)[C@@H]1NC(=O)[C@H](CO)NC(=O)[C@H](C)NC(=O)[C@H]([C@@H](C)O)NC(=O)[C@H](CCc2ccc(O)cc2)NC(=O)[C@H](CCCNC(=N)N)NC(=O)[C@H](CCC(=O)O)NC(=O)[C@H]2CCCN2C(=O)[C@H]([C@@H](C)O)NC(=O)[C@H](CCCCN)NC(=O)[C@H](CCC(N)=O)NC(=O)[C@@H]2C[C@@H]3CCCC[C@@H]3N2C(=O)[C@@H]2CCCN2C1=O [Example 43, Cyclo(-Arg-hTyr-Thr-Ala-Ser-Ile-Pro-Oic-Gln-Lys-Thr-^DPro-Glu-)] (cyclo(R[hTyr]TASIP[Oic]QKT[dP]E))
>10417 | > 100 µM | 0.0096 µM | >10417 | > 100 µM | CC[C@H](C)[C@@H]1NC(=O)[C@H](CO)NC(=O)[C@H](C)NC(=O)[C@H]([C@@H](C)O)NC(=O)[C@H](C(C)C)NC(=O)[C@H](CCCNC(=N)N)NC(=O)[C@H](CCC(=O)O)NC(=O)[C@H]2CCCN2C(=O)[C@H]([C@@H](C)O)NC(=O)[C@H](CCCCN)NC(=O)[C@H](CCC(N)=O)NC(=O)[C@@H]2C[C@@H]3CCCC[C@@H]3N2C(=O)[C@@H]2CCCN2C1=O [Example 44, Cyclo(-Arg-Val-Thr-Ala-Ser-Ile-Pro-Oic-Gln-Lys-Thr-^DPro-Glu-)] (cyclo(RVTASIP[Oic]QKT[dP]E))
127 | 0.9 µM | 0.0071 µM | 324 | 2.3 µM | CCCCCCCC[C@@H]1NC(=O)[C@@H]2CCCN2C(=O)[C@H]2CCCN2C(=O)[C@H]([C@@H](C)O)NC(=O)[C@H](CCCCN)NC(=O)[C@H](CCC(N)=O)NC(=O)[C@@H]2CCCCN2C(=O)[C@@H]2CCCN2C(=O)[C@H]([C@@H](C)CC)NC(=O)[C@H](CO)NC(=O)[C@H](C)NC(=O)[C@H]([C@@H](C)O)NC(=O)[C@H](CCC(=O)O)NC1=O [Example 45, Cyclo(-OctGly-Glu-Thr-Ala-Ser-Ile-Pro-Pip-Gln-Lys-Thr-^DPro-Pro-)] (cyclo([Gly(octyl)]ETASIP[Pip]QKT[dP]P))
310 | 2.2 µM | 0.0071 µM | 268 | 1.9 µM | CCCCCCCC[C@@H]1NC(=O)[C@@H]2CCCN2C(=O)[C@H]2CCCN2C(=O)[C@H]([C@@H](C)O)NC(=O)[C@H](CCCCN)NC(=O)[C@H](CCC(N)=O)NC(=O)[C@@H]2CCN2C(=O)[C@@H]2CCCN2C(=O)[C@H]([C@@H](C)CC)NC(=O)[C@H](CO)NC(=O)[C@H](C)NC(=O)[C@H]([C@@H](C)O)NC(=O)[C@H](CCC(=O)O)NC1=O [Example 46, Cyclo(-OctGly-Glu-Thr-Ala-Ser-Ile-Pro-Azt-Gln-Lys-Thr-^DPro-Pro-)] (cyclo([Gly(octyl)]ETASIP[Aze]QKT[dP]P))
714 | 1 µM | 0.0014 µM | 357 | 0.5 µM | CCCCCCCC[C@@H]1NC(=O)[C@@H]2CCCN2C(=O)[C@H]2CCCN2C(=O)[C@H](CO)NC(=O)[C@H](CCCCN)NC(=O)[C@H](CCC(N)=O)NC(=O)[C@@H]2CCCN2C(=O)[C@@H]2CCCN2C(=O)[C@H]([C@@H](C)CC)NC(=O)[C@H](CO)NC(=O)[C@H](C)NC(=O)[C@H]([C@@H](C)O)NC(=O)[C@H](CCc2ccc(O)cc2)NC1=O [Example 47] (cyclo([Gly(octyl)][hTyr]TASIPPQKS[dP]P))
407 | 1.1 µM | 0.0027 µM | 148 | 0.4 µM | CCCCCCCC[C@@H]1NC(=O)[C@@H]2CCCN2C(=O)[C@H]2CCCN2C(=O)[C@H](CC(N)=O)NC(=O)[C@H](CCCCN)NC(=O)[C@H](CCC(N)=O)NC(=O)[C@@H]2CCCN2C(=O)[C@@H]2CCCN2C(=O)[C@H]([C@@H](C)CC)NC(=O)[C@H](CO)NC(=O)[C@H](C)NC(=O)[C@H]([C@@H](C)O)NC(=O)[C@H](CCc2ccc(O)cc2)NC1=O [Example 48] (cyclo([Gly(octyl)][hTyr]TASIPPQKN[dP]P))
